Measurements as given in patent publication US8372967B2, “Compounds and methods for modulating expression of GCCR” (Isis Pharmaceuticals, Inc., priority 2006, dated 2013).
Strand notation (5' to 3'): a small letter for the sugar, then the base; units joined by * are phosphorothioate-linked, units joined directly phosphodiester-linked; [ ] holds rarer units or linkages, { } end groups; capitals alone tell only the bases. e = 2'-O-(2-methoxyethyl) (MOE); [5mC] = 5-methylcytosine; d = 2'-deoxy (DNA)

Tested on: DGAT2 mRNA
Assay: Antisense inhibition of DGAT2 in A10 cells, 75 nM (Table 81)
Assay type: cell-based, rat
Conditions: approximately 24 hours
Description: Short antisense compounds targeted to a DGAT2 nucleic acid were tested for their effects on DGAT2 mRNA in vitro. Cultured A10 cells in a 96-well plate were treated with 75 nM of short antisense compound. After a treatment period of approximately 24 hours, RNA was isolated from the cells and DGAT2 mRNA levels were measured by quantitative real-time PCR, as described herein. DGAT2 mRNA levels were adjusted according to total RNA content as measured by RIBOGREEN®. Results are presented as percent inhibition of DGAT2, relative to untreated control cells in Table 81.

Substance | % Control
372594 (antisense eA*e[5mC]*dA*dG*dA*dA*dG*dG*d[5mC]*dA*d[5mC]*d[5mC]*e[5mC]*eA) [compound 372594] | 77 % Control
372602 (antisense e[5mC]*e[5mC]*dA*dG*dG*d[5mC]*dA*dT*dG*dG*dA*dG*e[5mC]*eT) [compound 372602] | 39 % Control
372618 (antisense eG*eT*dG*dG*dT*dA*d[5mC]*dA*dG*dG*dT*d[5mC]*eG*eA) [compound 372618] | 29 % Control
372624 (antisense eT*eG*dG*dT*d[5mC]*dT*dT*dG*dT*dG*dA*dT*eT*eG) [compound 372624] | 56 % Control

Tested on: rat DGAT2 mRNA
Assay: Dose-dependent inhibition of DGAT2 in A10 cells (Tables 82, 83)
Assay type: cell-based
Conditions: 0.62 nM (Table 83)
Description: Additional short antisense compounds targeted to DGAT2 mRNA were tested in vitro in a dose-response experiment. A10 cells were prepared as described above and treated with 6.25, 12.5, 25.0, 50.0, 100.0, and 200.0 nM short antisense compounds to determine if DGAT2 inhibition occurs in a dose-dependent manner. […] Results are presented as percent inhibition, relative to untreated control cells.
Additional short antisense compounds targeted to DGAT2 mRNA were tested in vitro. A10 cells were prepared as described above and treated with 0.62, 1.85, 5.56, 16.67, 50.0, and 150.0 nM short antisense compounds to determine if DGAT2 inhibition occurs in a dose-dependent manner. DGAT2 mRNA was measured using quantitative real-time PCR, as described herein. […] Results are presented as percent inhibition of rat DGAT2, relative to untreated control cells.

Substance | percent inhibition of rat DGAT2
372594 (antisense eA*e[5mC]*dA*dG*dA*dA*dG*dG*d[5mC]*dA*d[5mC]*d[5mC]*e[5mC]*eA) [compound 372594] | 0%
372602 (antisense e[5mC]*e[5mC]*dA*dG*dG*d[5mC]*dA*dT*dG*dG*dA*dG*e[5mC]*eT) [compound 372602] | 0%
372618 (antisense eG*eT*dG*dG*dT*dA*d[5mC]*dA*dG*dG*dT*d[5mC]*eG*eA) [compound 372618] | 0%
372624 (antisense eT*eG*dG*dT*d[5mC]*dT*dT*dG*dT*dG*dA*dT*eT*eG) [compound 372624] | 0%

Same assay, conditions: 1.85 nM (Table 83)

Substance | percent inhibition of rat DGAT2
372594 (antisense eA*e[5mC]*dA*dG*dA*dA*dG*dG*d[5mC]*dA*d[5mC]*d[5mC]*e[5mC]*eA) [compound 372594] | 0%
372602 (antisense e[5mC]*e[5mC]*dA*dG*dG*d[5mC]*dA*dT*dG*dG*dA*dG*e[5mC]*eT) [compound 372602] | 0%
372618 (antisense eG*eT*dG*dG*dT*dA*d[5mC]*dA*dG*dG*dT*d[5mC]*eG*eA) [compound 372618] | 0%
372624 (antisense eT*eG*dG*dT*d[5mC]*dT*dT*dG*dT*dG*dA*dT*eT*eG) [compound 372624] | 0%

Same assay, conditions: 5.56 nM (Table 83)

Substance | percent inhibition of rat DGAT2
372594 (antisense eA*e[5mC]*dA*dG*dA*dA*dG*dG*d[5mC]*dA*d[5mC]*d[5mC]*e[5mC]*eA) [compound 372594] | 0%
372602 (antisense e[5mC]*e[5mC]*dA*dG*dG*d[5mC]*dA*dT*dG*dG*dA*dG*e[5mC]*eT) [compound 372602] | 10%
372618 (antisense eG*eT*dG*dG*dT*dA*d[5mC]*dA*dG*dG*dT*d[5mC]*eG*eA) [compound 372618] | 0%
372624 (antisense eT*eG*dG*dT*d[5mC]*dT*dT*dG*dT*dG*dA*dT*eT*eG) [compound 372624] | 0%

Same assay, conditions: 6.25 nM (Table 82)

Substance | percent inhibition of DGAT2
372602 (antisense e[5mC]*e[5mC]*dA*dG*dG*d[5mC]*dA*dT*dG*dG*dA*dG*e[5mC]*eT) [compound 372602] | 0%
372618 (antisense eG*eT*dG*dG*dT*dA*d[5mC]*dA*dG*dG*dT*d[5mC]*eG*eA) [compound 372618] | 0%

Same assay, conditions: 12.5 nM (Table 82)

Substance | percent inhibition of DGAT2
372602 (antisense e[5mC]*e[5mC]*dA*dG*dG*d[5mC]*dA*dT*dG*dG*dA*dG*e[5mC]*eT) [compound 372602] | 0%
372618 (antisense eG*eT*dG*dG*dT*dA*d[5mC]*dA*dG*dG*dT*d[5mC]*eG*eA) [compound 372618] | 5%

Same assay, conditions: 16.67 nM (Table 83)

Substance | percent inhibition of rat DGAT2
372594 (antisense eA*e[5mC]*dA*dG*dA*dA*dG*dG*d[5mC]*dA*d[5mC]*d[5mC]*e[5mC]*eA) [compound 372594] | 0%
372602 (antisense e[5mC]*e[5mC]*dA*dG*dG*d[5mC]*dA*dT*dG*dG*dA*dG*e[5mC]*eT) [compound 372602] | 0%
372618 (antisense eG*eT*dG*dG*dT*dA*d[5mC]*dA*dG*dG*dT*d[5mC]*eG*eA) [compound 372618] | 0%
372624 (antisense eT*eG*dG*dT*d[5mC]*dT*dT*dG*dT*dG*dA*dT*eT*eG) [compound 372624] | 1%

Same assay, conditions: 50.0 nM (Table 82)

Substance | percent inhibition of DGAT2
372602 (antisense e[5mC]*e[5mC]*dA*dG*dG*d[5mC]*dA*dT*dG*dG*dA*dG*e[5mC]*eT) [compound 372602] | 18%
372618 (antisense eG*eT*dG*dG*dT*dA*d[5mC]*dA*dG*dG*dT*d[5mC]*eG*eA) [compound 372618] | 27%

Same assay, conditions: 50 nM (Table 83)

Substance | percent inhibition of rat DGAT2
372594 (antisense eA*e[5mC]*dA*dG*dA*dA*dG*dG*d[5mC]*dA*d[5mC]*d[5mC]*e[5mC]*eA) [compound 372594] | 2%
372602 (antisense e[5mC]*e[5mC]*dA*dG*dG*d[5mC]*dA*dT*dG*dG*dA*dG*e[5mC]*eT) [compound 372602] | 19%
372618 (antisense eG*eT*dG*dG*dT*dA*d[5mC]*dA*dG*dG*dT*d[5mC]*eG*eA) [compound 372618] | 30%
372624 (antisense eT*eG*dG*dT*d[5mC]*dT*dT*dG*dT*dG*dA*dT*eT*eG) [compound 372624] | 16%

Same assay, conditions: 100.0 nM (Table 82)

Substance | percent inhibition of DGAT2
372602 (antisense e[5mC]*e[5mC]*dA*dG*dG*d[5mC]*dA*dT*dG*dG*dA*dG*e[5mC]*eT) [compound 372602] | 47%
372618 (antisense eG*eT*dG*dG*dT*dA*d[5mC]*dA*dG*dG*dT*d[5mC]*eG*eA) [compound 372618] | 65%

Same assay, conditions: 150 nM (Table 83)

Substance | percent inhibition of rat DGAT2
372594 (antisense eA*e[5mC]*dA*dG*dA*dA*dG*dG*d[5mC]*dA*d[5mC]*d[5mC]*e[5mC]*eA) [compound 372594] | 15%
372602 (antisense e[5mC]*e[5mC]*dA*dG*dG*d[5mC]*dA*dT*dG*dG*dA*dG*e[5mC]*eT) [compound 372602] | 51%
372618 (antisense eG*eT*dG*dG*dT*dA*d[5mC]*dA*dG*dG*dT*d[5mC]*eG*eA) [compound 372618] | 60%
372624 (antisense eT*eG*dG*dT*d[5mC]*dT*dT*dG*dT*dG*dA*dT*eT*eG) [compound 372624] | 38%

Same assay, conditions: 200.0 nM (Table 82)

Substance | percent inhibition of DGAT2
372602 (antisense e[5mC]*e[5mC]*dA*dG*dG*d[5mC]*dA*dT*dG*dG*dA*dG*e[5mC]*eT) [compound 372602] | 76%
372618 (antisense eG*eT*dG*dG*dT*dA*d[5mC]*dA*dG*dG*dT*d[5mC]*eG*eA) [compound 372618] | 80%
